Data reported in PMC9805530 (European journal of medicinal chemistry, 2022).
“Also recorded” adds a separate entry of the source.

Legend:
[1] = target: T1, Sirt5 (Homo sapiens, UniProt Q9NXA8); experiment: Fluorogenic Sirt5 Assay Kit; format: biochemical; conditions: 100 μM compounds, 37 °C 30 min
T1 sequence (Q9NXA8 37-310): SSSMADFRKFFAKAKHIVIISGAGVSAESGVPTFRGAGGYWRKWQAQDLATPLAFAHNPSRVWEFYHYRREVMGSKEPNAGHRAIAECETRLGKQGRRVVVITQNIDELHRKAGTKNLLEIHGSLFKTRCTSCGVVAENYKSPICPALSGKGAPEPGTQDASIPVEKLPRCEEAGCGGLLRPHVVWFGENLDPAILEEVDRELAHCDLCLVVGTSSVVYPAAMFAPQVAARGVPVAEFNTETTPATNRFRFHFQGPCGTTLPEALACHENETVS

[2] = target: T2, Sirt6 (Homo sapiens, UniProt Q8N6T7); format: biochemical; conditions: 100 μM, 30 °C, 60 minutes
[3] = system: R28 cells; experiment: MTT cell viability assay; format: cell-based; conditions: 100 μM, 24 hours
[4] = system: H1299 cells; experiment: Acetylated H3K9 to total H3 in cancer cells; format: cell-based; conditions: 30 μM, 24 hours
[5] = system: PLC/PRF/5 cells; experiment: Acetylated H3K9 to total H3 in cancer cells; format: cell-based; conditions: 30 μM, 24 hours
[6] = system: H1299 cells; experiment: Colony formation assay; format: cell-based; conditions: 30 μM, one week
[7] = system: PLC/PRF/5 cells; experiment: Colony formation assay; format: cell-based; conditions: 30 μM, one week
[8] = target: T3, Sirt1 (Homo sapiens, UniProt Q96EB6); experiment: Sirt1 deacetylation Activity Assay Kit; conditions: time course, Fig. 3
T3 sequence (Q96EB6 1-747): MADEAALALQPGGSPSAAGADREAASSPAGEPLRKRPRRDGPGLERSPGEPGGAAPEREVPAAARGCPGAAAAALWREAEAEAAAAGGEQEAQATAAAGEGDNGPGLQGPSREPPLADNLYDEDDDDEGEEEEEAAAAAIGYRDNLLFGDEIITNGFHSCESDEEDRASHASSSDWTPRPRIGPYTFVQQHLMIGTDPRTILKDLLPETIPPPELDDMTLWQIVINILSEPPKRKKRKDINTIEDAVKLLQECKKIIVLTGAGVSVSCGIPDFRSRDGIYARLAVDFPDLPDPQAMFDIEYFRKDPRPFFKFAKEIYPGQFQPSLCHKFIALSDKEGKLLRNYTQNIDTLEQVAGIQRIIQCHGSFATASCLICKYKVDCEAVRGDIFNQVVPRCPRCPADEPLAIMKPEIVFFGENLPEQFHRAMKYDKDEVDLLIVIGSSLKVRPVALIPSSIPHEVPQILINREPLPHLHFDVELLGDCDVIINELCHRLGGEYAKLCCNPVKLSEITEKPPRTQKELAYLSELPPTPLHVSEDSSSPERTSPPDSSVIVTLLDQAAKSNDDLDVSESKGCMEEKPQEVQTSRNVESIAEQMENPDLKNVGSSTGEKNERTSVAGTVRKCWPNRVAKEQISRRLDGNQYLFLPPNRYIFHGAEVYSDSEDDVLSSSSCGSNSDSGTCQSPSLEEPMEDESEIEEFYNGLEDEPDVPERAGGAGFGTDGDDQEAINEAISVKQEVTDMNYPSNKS

[9] = target: T4, Sirt2 (Homo sapiens, UniProt Q8IXJ6); experiment: Sirt2 deacetylation Activity Assay Kit; conditions: time course, Fig. 3
T4 sequence (Q8IXJ6 1-389): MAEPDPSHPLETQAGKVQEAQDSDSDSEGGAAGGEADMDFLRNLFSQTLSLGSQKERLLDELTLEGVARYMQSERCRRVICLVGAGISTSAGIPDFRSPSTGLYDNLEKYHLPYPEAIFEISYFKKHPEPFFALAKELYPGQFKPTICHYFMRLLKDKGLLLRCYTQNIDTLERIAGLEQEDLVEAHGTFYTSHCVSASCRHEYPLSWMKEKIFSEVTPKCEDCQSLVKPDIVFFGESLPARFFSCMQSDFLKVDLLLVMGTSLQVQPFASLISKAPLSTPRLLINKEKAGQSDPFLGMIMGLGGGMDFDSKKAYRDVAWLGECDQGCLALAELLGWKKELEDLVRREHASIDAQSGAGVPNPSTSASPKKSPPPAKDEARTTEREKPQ

[10] = system: BV2 cells; experiment: LPS-induced inflammatory gene mRNA expression; conditions: 30 μM pretreatment 30 minutes, 100 ng/mL LPS 6 hours
[11] = target: T2, Sirt6; experiment: Sirt6-dependent peptide deacetylation, Fluor de Lys; conditions: for effect on Sirt6 activity (time course): Fig. 3A; for Activation Fold 30 μM: compound at 30 μM; for Activation Fold 30 μM / Activation Fold 100 μM: mean ± SD, at least two independent experiments; for Activation Fold 100 μM: compound at 100 μM
[12] = target: T5, Sirt3 (Homo sapiens, UniProt Q9NTG7); experiment: Sirt3 deacetylation Activity Assay Kit; conditions: time course, Fig. 3
T5 sequence (Q9NTG7 1-399): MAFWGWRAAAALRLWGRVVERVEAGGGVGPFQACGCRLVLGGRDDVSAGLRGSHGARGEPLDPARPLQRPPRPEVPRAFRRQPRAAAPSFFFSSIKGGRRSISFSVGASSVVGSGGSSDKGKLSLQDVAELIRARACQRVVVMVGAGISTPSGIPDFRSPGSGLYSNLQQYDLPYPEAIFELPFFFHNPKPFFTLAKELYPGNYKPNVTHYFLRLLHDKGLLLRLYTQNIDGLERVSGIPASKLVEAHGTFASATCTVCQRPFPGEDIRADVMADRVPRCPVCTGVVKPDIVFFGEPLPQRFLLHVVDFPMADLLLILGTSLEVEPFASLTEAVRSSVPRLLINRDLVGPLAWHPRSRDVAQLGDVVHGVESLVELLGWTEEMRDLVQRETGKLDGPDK

T2 sequence (Q8N6T7 whole entry): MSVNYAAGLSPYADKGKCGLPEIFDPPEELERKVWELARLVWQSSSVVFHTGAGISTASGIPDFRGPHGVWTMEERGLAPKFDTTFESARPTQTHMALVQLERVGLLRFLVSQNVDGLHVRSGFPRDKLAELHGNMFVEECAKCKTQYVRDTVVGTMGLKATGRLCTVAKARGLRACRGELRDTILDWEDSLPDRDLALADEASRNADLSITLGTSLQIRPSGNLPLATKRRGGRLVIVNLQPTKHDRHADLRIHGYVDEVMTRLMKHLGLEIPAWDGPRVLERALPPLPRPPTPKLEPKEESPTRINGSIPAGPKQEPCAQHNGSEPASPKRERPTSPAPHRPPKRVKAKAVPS

SMILES	effect on Sirt5 desuccinylation activity [1]	acetylation of H3K9 in the nucleosome test [2]	toxicity on R28 cells [3]	Sirt6-dependent deacetylation of H3K9 (acetylated H3K9 to total H3) [4]	Sirt6-dependent deacetylation of H3K9 (acetylated H3K9 to total H3) [5]	inhibition of colony formation [6]	inhibition of colony formation [7]	effect on Sirt1 deacetylation activity [8]	effect on Sirt2 deacetylation activity [9]	LPS-induced expression of IL-1β [10]	LPS-induced expression of IL-6 [10]	LPS-induced expression of MCP-1 [10]	LPS-induced expression of TNFα [10]	effect on Sirt6 activity (time course) [11]	ICAM-1 induction [10]	LPS-induced CXCL10 expression [10]	LPS-induced iNOS expression [10]	VCAM-1 induction [10]	Activation Fold 30 μM [11]	Activation Fold 100 μM [11]	also measured
COCCN1CCN(c2ncccc2C2Nc3ccccc3-n3cccc32)CC1 (centres unmarked) [Compound 36, 4-(2-(4-(2-Methoxyethyl)piperazin-1-yl)pyridin-3-yl)-4,5-dihydropyrrolo[1,2-a]quinoxaline]	no significant effects	significantly decreased	no obvious toxicity	significantly activated Sirt6 to deacetylate H3K9	significantly activated Sirt6 to deacetylate H3K9	about half	about half	no significant effects	no significant effects	strongly inhibited	strongly inhibited	strongly inhibited	strongly inhibited	specifically promoted	–	–	–	–	–	–	decrease of acetylated H3K9 when Sirt6 knockdown by siRNA ([4]; Sirt6 siRNA): abolished; decrease of acetylated H3K9 when Sirt6 knockdown by siRNA ([5]; Sirt6 siRNA): abolished
CN(C)CCN1CCN(c2ncccc2C2Nc3ccccc3-n3cccc32)CC1 (centres unmarked) [Compound 38, 2-(4-(3-(4,5-Dihydropyrrolo[1,2-a]quinoxalin-4-yl)pyridin-2-yl)piperazin-1-yl)-N,N-dimethylethan-1-amine]	no significant effects	significantly decreased	–	–	–	–	–	no significant effects	no significant effects	strongly inhibited	strongly inhibited	strongly inhibited	strongly inhibited	specifically promoted	slight inhibition	–	–	–	–	–	effect on Sirt3 deacetylation activity [12]: no significant effects
OCCN1CCN(c2ncccc2C2Nc3ccccc3-n3cccc32)CC1 (centres unmarked) [Compound 35, 2-(4-(3-(4,5-Dihydropyrrolo[1,2-a]quinoxalin-4-yl)pyridin-2-yl)piperazin-1-yl)ethan-1-ol]	no significant effects	significantly decreased	no obvious toxicity	no obvious influence	no obvious influence	only a slight inhibitory effect	only a slight inhibitory effect	no significant effects	no significant effects	strongly inhibited	strongly inhibited	strongly inhibited	strongly inhibited	specifically promoted	slight inhibition	–	–	–	–	–	–
c1ccc2c(c1)NC(c1cccnc1N1CCN(CCN3CCCC3)CC1)c1cccn1-2 (centres unmarked) [Compound 47, 4-(2-(4-(2-(Pyrrolidin-1-yl)ethyl)piperazin-1-yl)pyridin-3-yl)-4,5-dihydropyrrolo[1,2-a]quinoxaline]	no significant effects	no effect	–	–	–	–	–	no significant effects	no significant effects	strongly inhibited; also recorded: almost reversed	strongly inhibited; also recorded: almost reversed	strongly inhibited; also recorded: almost reversed	strongly inhibited	specifically promoted	slight inhibition	significantly repressed	significantly repressed	obviously inhibit	4.80 ± 0.19 fold	5.38 ± 0.29 fold	–
OC1CN(CCN2CCN(c3ncccc3C3Nc4ccccc4-n4cccc43)CC2)C1 (centres unmarked) [Compound 46, 1-(2-(4-(3-(4,5-Dihydropyrrolo[1,2-a]quinoxalin-4-yl)pyridin-2-yl)piperazin-1-yl)ethyl)azetidin-3-ol]	no significant effects	significantly decreased	–	–	–	–	–	no significant effects	no significant effects	strongly inhibited; also recorded: almost reversed	strongly inhibited; also recorded: almost reversed	strongly inhibited; also recorded: almost reversed	strongly inhibited	specifically promoted	–	significantly repressed	significantly repressed	obviously inhibit	–	–	–
c1ccc2c(c1)NC(c1cccnc1N1CCN(CCn3ccnc3)CC1)c1cccn1-2 (centres unmarked) [Compound 50, 4-(2-(4-(2-(1H-Imidazol-1-yl)ethyl)piperazin-1-yl)pyridin-3-yl)-4,5-dihydropyrrolo[1,2-a]quinoxaline]	no significant effects	significantly decreased	–	–	–	–	–	no significant effects	no significant effects	strongly inhibited; also recorded: almost reversed	strongly inhibited; also recorded: almost reversed	strongly inhibited; also recorded: almost reversed	strongly inhibited	specifically promoted	slight inhibition	significantly repressed	significantly repressed	–	3.34 ± 0.19 fold	6.29 ± 0.02 fold	–
